The subject of data set [1] is apple leaf cuticles. Nature of the data set: Membrane penetration test, penetration of sulcotrione. In kind it is in vitro ADME. The following applies: sulcotrione alone, 0.2 g/L ai; 20° C./60% rel. air humidity.
Procedure: (§1) The potential of the C8/10 glucamide, which is independent of the surfactant action, to promote foliar absorption of active agrochemical ingredients was determined in membrane penetration tests with apple or pear leaf cuticles. […] The stomata-free cuticles were first dried under air and then installed into stainless steel diffusion cells. After application to the original upper side of the leaf and evaporation of the test liquid, i.e. of the aqueous preparations of the active ingredients without or with the C8/10-glucamide-containing spray liquids or comparative compositions, the diffusion cells were transferred into thermostatted blocks and charged with aqueous liquid. The water used to make up the aqueous test liquids was local tap water (of known composition). At regular intervals, samples were taken and, irrespective of the test system, the proportion of active ingredient penetrated was determined either by HPLC or scintillation measurement. […] In all other HPLC variants, only an aliquot was taken. During the experiment, the temperature in the system (block, diffusion cells, liquids, etc.) and the air humidity above the spray coating on the cuticle were known exactly and were monitored. […] The analytical determination was effected either by means of HPLC (1290 Infinity, Agilent) or analysis of radioactivity (Tricarb, Perkin Elmer). […]
Data set [2] relates to apple leaf cuticles. Nature of the data set: Membrane penetration test, penetration of 2,4-D DMA with antagonistic calcium. In kind it is in vitro ADME. The following applies: 2,4-D DMA alone, 5 g/L ai; 177 ppm Ca; 25° C./56% rel. air humidity.
Procedure: as §1
In data set [3] the test system is apple leaf cuticles. Nature of the data set: Membrane penetration test, penetration of MCPA (potassium salt). The data set is classed as in vitro ADME. The settings on record: MCPA potassium alone, 1.0 g/L ai in spray liquid; 25° C./56% rel. air humidity.
Procedure: as §1
Data set [4] concerns apple leaf cuticles. Nature of the data set: Membrane penetration test, penetration of dicamba (acid). The settings on record: dicamba (acid) alone, 1.0 g/L ai; normal tap water (85 ppm Ca); 20° C./60% rel. air humidity. The source says:
The stomata-free cuticles were first dried under air and then installed into stainless steel diffusion cells. […] The water used to make up the aqueous test liquids was local tap water (of known composition). […] In each case, the geometric mean values of the penetration for intact membranes at the mean measurement times are given.

The structures appear in SMILES notation.

Consider `CS(=O)(=O)c1ccc(C(=O)C2C(=O)CCCC2=O)c(Cl)c1` [Sulcotrione, sulcotrione], for which, in the data set with apple leaf cuticles [1], the “Mean penetration of sulcotrione after 5 h” value is given as below 1% and the “Mean penetration of sulcotrione after 1 day” value is given as below 1%.
Turning to `CNC.O=C(O)COc1ccc(Cl)cc1Cl` [2,4-D DMA, 2,4-D], in the data set on apple leaf cuticles [2], the “Mean penetration of 2,4-D DMA after 4 h” value came out at 0.2% and the “Mean penetration of 2,4-D DMA after 1 day” value came out at 0.3%.
In the case of `Cc1cc(Cl)ccc1OCC(=O)[O-].[K+]` [MCPA potassium, MCPA], in the data set on apple leaf cuticles [3], the “Mean penetration of MCPA (potassium salt) after 4 h” value was 1.6% and the “Mean penetration of MCPA (potassium salt) after 1 day” value is 7.2%.
As to `COc1c(Cl)ccc(Cl)c1C(=O)O` [Dicamba (acid), dicamba], in the data set with apple leaf cuticles [4], the “Mean penetration of dicamba (acid) after 5 h” value was 4.4% and the “Mean penetration of dicamba (acid) after 1 day” value worked out at 12.4%.

The values are drawn from patent US20170055524A1, “Aqueous Adjuvant Composition For Increasing The Efficacy Of Electrolyte Active Substances” (priority 2014, published 2017).
